Test system: linearized pUC19 DNA
Assay: DNA cross-linking assay with linearized pUC19 DNA, denaturing agarose gel electrophoresis
Format: biochemical
Conditions: for DNA interstrand cross-link (ICL) formation: linearized pUC19 DNA
Method: FIGS. 6A-6C depict the DNA crosslinking ability of several compounds according to some embodiments. The DNA cross-linking assays employ linear pUC19 DNA. DMSO was used as vehicle (negative control), and 100 μM cisplatin was used as positive controls. The DNA was analyzed by 0.4% NaOH denaturing and agarose gel electrophoresis (90 V, 1.5 h). FIG. 6A depicts the DNA cross-linking comparison of colibactin 770 (3a), stable colibactin 742 (4), and its linear precursor 9 at pH 5.0. FIG. 6B depicts the comparison of the relative DNA cross-linking abilities of colibactin 742 (4) and its linear precursor 9 at pH 5.0. FIG. 6C depicts the comparison of the relative DNA cross-linking abilities of colibactin 742 (4) and its linear precursor 9 at pH 7.0.
FIG. 10 depicts the DNA cross-linking assay employing linear pUC19 DNA and synthetic colibactin (3), 9, and colibactin 742 (4) according to some embodiments. Specifically, 5% DMSO was used as vehicle (negative control), and 100 μM cisplatin was used as positive control. DNA ladder (Lane #1); 5% DMSO (Lane #2); 100 μM cisplatin (Lane #3); 200 μM colibactin (3) (Lane #4); 100 μM colibactin (3) (Lane #5); 10 μM colibactin (3) (Lane #6); 1 μM colibactin (3) (Lane #7); 200 μM 9 (Lane #8); 100 μM 9 (Lane #9); 10 μM 9 (Lane #10); 1 μM 9 (Lane #11); 200 μM colibactin 742 (4) (Lane #12); 100 μM colibactin 742 (4) (Lane #13); 10 μM colibactin 742 (4) (Lane #14); 1 μM colibactin 742 (4) (Lane #15). Conditions (Lane #3): linearized pUC19 DNA (15.4 μM in base pairs), 5% DMSO (vehicle), 100 μM cisplatin, 10 mM citric buffer, pH 5.0, 4 h, 37° C. Conditions (Lanes #4-#7): linearized pUC19 DNA (15.4 μM in base pairs), colibactin (3) (200 μM-1 μM), 5% DMSO, 10 mM citric buffer, pH 5.0, 4 h, 37° C. Conditions (Lanes #8-#11): linearized pUC19 DNA (15.4 μM in base pairs), 9 (200 μM-1 μM), 5% DMSO, 10 mM citric buffer, pH 5.0, 4 h, 37° C. Conditions (Lanes #12-#15): linearized pUC19 DNA (15.4 μM in base pairs), colibactin 742 (4) (200 μM-1 μM), 5% DMSO, 10 mM citric buffer, pH 5.0, 4 h, 37° C. The DNA was analyzed by native, 0.2% NaOH, 0.4% NaOH, and 1% NaOH denaturing agarose gel electrophoresis (90 V, 1.5 h). Linear=linearized DNA in native form, linear-denat.=linearized DNA in denaturing form, linear-XL=linerized DNA cross-linked by colibactins or cisplatin.
FIG. 11 depicts the DNA cross-linking assay employing linear pUC19 DNA and synthetic colibactin fragments 23, 24, and 22. Specifically, 5% DMSO was used as vehicle (negative control), and 100 μM cisplatin was used as positive control. DNA ladder (Lane #1); 5% DMSO (Lane #2); 100 μM cisplatin (Lane #3); 500 μM 23 (Lane #4); 100 μM 23 (Lane #5); 10 μM 23 (Lane #6); 1 μM 23 (Lane #7); 100 nm 23 (Lane #8); 500 μM 24 (Lane #9); 100 μM 24 (Lane #10); 10 μM 24 (Lane #11); 1 μM 24 (Lane #12); 100 nm 24 (Lane #13); 500 μM 22 (Lane #14); 100 μM 22 (Lane #15); 10 μM 22 (Lane #16); 1 μM 22 (Lane #17); 100 nm 22 (Lane #18). Conditions (Lane #2): linearized pUC19 DNA (15.4 μM in base pairs), 5% DMSO (vehicle), 10 mM citric buffer, pH 5.0, 4 h, 37° C. Conditions (Lane #3): linearized pUC19 DNA (15.4 μM in base pairs), 5% DMSO (vehicle), 100 μM cisplatin, 10 mM citric buffer, pH 5.0, 4 h, 37° C. Conditions (Lanes #4-#8): linearized pUC19 DNA (15.4 μM in base pairs), 23 (500 μM-100 nM), 5% DMSO, 10 mM citric buffer, pH 5.0, 4 h, 37° C. Conditions (Lanes #9-#13): linearized pUC19 DNA (15.4 μM in base pairs), 24 (500 μM-1 μM), 5% DMSO, 10 mM citric buffer, pH 5.0, 4 h, 37° C. Conditions (Lanes #14-#18): linearized pUC19 DNA (15.4 μM in base pairs), 22 (500 μM-100 nM), 5% DMSO, 10 mM citric buffer, pH 5.0, 4 h, 37° C. The DNA was analyzed by native, 0.2% NaOH, 0.4% NaOH, and 1% NaOH denaturing agarose gel electrophoresis (90 V, 1.5 h). Linear=linearized DNA in native form, linear-denat.=linearized DNA in denaturing form, linear-XL=DSB/linerized DNA cross-linked by colibactins or cisplatin. […]

| Structure (SMILES) | DNA alkylation | DNA interstrand cross-link (ICL) formation (pH 5.0, 4 h, 37° C.) | DNA interstrand cross-link (ICL) formation (pH 7.0, 1 nM-100 μM) | concentration inducing stable DNA ICLs relative to 3a (pH 5.0) | stability of the ICLs under increasingly stringent denaturing conditions (pH 5.0, native, 0.2%, 0.4%, 1% NaOH gels) |
| --- | --- | --- | --- | --- | --- |
| C[C@H]1CCC(C2=C(CC(=O)NCC(=O)c3csc(CCc4csc(CNC(=O)CC5=C(C6=N[C@@H](C)CC6)C(=O)NC5(C)C)n4)n3)C(C)(C)NC2=O)=N1 [compound 22] | lack of DNA alkylation | failed to form DNA ICLs |  |  |  |
| C[C@H]1CCC(CC(=O)NC2(C(=O)CC(=O)NCC(=O)c3csc(CCc4csc(CNC(=O)CC(=O)C5(NC(=O)CC6=N[C@@H](C)CC6)CC5)n4)n3)CC2)=N1 [compound 9] |  | induced stable DNA ICLs | induced stable ICLs | ten-fold lower | comparable to those derived from 3a |
| CCOC(=O)c1csc(CNC(=O)CC2=C(C3=N[C@@H](C)CC3)C(=O)NC23CC3)n1 [compound 23, reference compound] |  | failed to form DNA ICLs |  |  |  |
| CCOC(=O)c1nc(C2(O)CNC(=O)C2C2=C(C3=N[C@@H](C)CC3)C(=O)NC23CC3)cs1 (some centres unmarked) [compound 24] |  | failed to form DNA ICLs |  |  |  |

From patent publication US20250026747A1, “COLIBACTIN DERIVATIVES AND METHODS OF TREATING, AMELIORATING, AND/OR PREVENTING CANCER” (priority 2021, published 2025)
